Assay [1] concerns the target T1, ROCKII (1-543) (Homo sapiens (Human), UniProt O75116). The experiment in a line: Luciferin-Luciferase Assay (PKLight ATP detection). The class given is biochemical. The conditions noted are these: 750 nM ATP, 500 nM peptide, 7.5 nM kinase. As for the experimental part: 1. Luciferin-Luciferase Assay
The activity of ROCKII (1-543) kinase was measured utilizing Cambrex PKLight ATP Detection Reagent, a homogeneous assay technology using luciferin-luciferase to quantify residual ATP. The assay was performed in 384-well low-volume, white, non-binding surface microtiter plates (Corning). The assay buffer was 25 mM HEPES, pH 7.5, 10 mM MgCl2, 50 mM KCl, 0.2% BSA, 0.01% CHAPS, 100 μM Na3VO4 and 0.5 mM DTT. Test compounds, dissolved in neat DMSO at 500 μg/mL, were serially diluted for dose response for a final starting concentration of 3 μg/mL in 1% DMSO of assay buffer. ROCKII (1-543) (62,408Da) was diluted in assay buffer to a final concentration of 7.5 nM in a total volume of 15 μL. Positive controls were reaction mixtures containing no test compound; negative controls (blanks) were reaction mixtures containing no kinase. After 15 minutes of pre-incubation of the test compounds with the kinase, a mixture of ATP and peptide substrate ([…]) in assay buffer was added to each well for a final concentration of 750 nM ATP and 500 nM peptide, respectively. After 90 minutes of incubation of the kinase reaction at 28° C. temperature, 10 μL of PKLight ATP Detection Reagent (warmed to room temperature previously) was added to each well. The assay plate was incubated at room temperature for additional 15 minutes and then read on an Analyst in luminescence mode. Dose-response experiments for each of the test compounds were conducted in quadruplet. IC50 values of test compounds represent 50% response of the positive control from the dose-response curve.
Target sequence in this assay (O75116 1-543): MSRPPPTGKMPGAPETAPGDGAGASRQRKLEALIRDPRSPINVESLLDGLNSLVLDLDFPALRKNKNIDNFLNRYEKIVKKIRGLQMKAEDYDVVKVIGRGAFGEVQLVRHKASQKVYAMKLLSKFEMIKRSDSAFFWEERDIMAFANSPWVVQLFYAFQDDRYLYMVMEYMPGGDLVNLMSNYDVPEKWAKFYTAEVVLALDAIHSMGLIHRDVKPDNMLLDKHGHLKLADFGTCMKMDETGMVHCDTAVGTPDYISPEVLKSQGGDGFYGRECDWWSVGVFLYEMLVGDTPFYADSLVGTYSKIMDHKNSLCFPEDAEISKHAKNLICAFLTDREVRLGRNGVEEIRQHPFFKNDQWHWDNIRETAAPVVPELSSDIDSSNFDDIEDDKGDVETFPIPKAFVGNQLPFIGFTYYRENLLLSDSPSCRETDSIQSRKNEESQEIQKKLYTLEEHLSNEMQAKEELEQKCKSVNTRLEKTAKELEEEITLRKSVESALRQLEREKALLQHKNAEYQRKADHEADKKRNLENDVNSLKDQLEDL

Assay [2] addresses T1, ROCKII (1-543). The experiment in a line: IMAP Assay (fluorescence polarization, FAM S6 peptide). The class given is biochemical. Conditions: 100 μM ATP, 200 nM FAM S6 peptide, 1 nM kinase; read-out: Assay 2 IC50. As for the experimental part: This assay is performed using FAM S6 substrate peptide (Catalogue #R7184) and IMAP FP Screening Express Kit detection reagents from Molecular Devices (Sunnyvale, Calif.) in IMAP kinase reaction buffer (Tris-HCl, pH 7.2, 10 mM MgCl2, 0.05% NaN3, 0.1% phosphate-free BSA) containing 1 mM DTT. Test compounds dissolved in neat DMSO at 0.3 mg/mL are serially diluted 1 to 3 for concentration response in 100% DMSO. The DMSO serial dilutions are further diluted 33.33-fold in kinase reaction buffer, and 10 μL of this buffer dilution is transferred to Corning black 96-well half area NBS plates for a final top concentration of 3 μg/mL in 1% DMSO. 10 μL aliquot of 3 nM ROCKII (1-543) diluted in kinase reaction buffer is added to each assay well for a final concentration of 1 nM kinase. 10 μL of a mixture of 600 nM FAM S6 peptide and 300 μM ATP diluted in kinase reaction buffer is added to each well for a final concentration of 200 nM peptide and 100 μM ATP. The kinase reaction mixture is incubated for 60 minutes at room temperature. Positive controls are reaction mixtures containing no test compound and negative controls (blanks) are reaction mixtures containing no kinase. The kinase reaction is stopped by addition of 60 μL IMAP progressive binding reagent (Catalog #R7284) diluted 400-fold in 1× Binding buffer A. After 30 min of incubation at room temperature, the plates are read for fluorescence polarization on Analyst Plate Reader using Ex 485 nm, Em 530 nm, and FL 505 dichroic mirror. The mP signals are converted to percent of control (POC) values using the formula: POC=100*(Signal−BCTRL)÷(PCTRL−BCTRL)
Where Signal is the test well signal, BCTRL is the average of background (negative control) well signals on the plate and PCTRL is the average of positive control well signals on the plate. For the concentration-responsive compounds, POC as a function of test compound concentration is fitted to a 4-parameter logistic equation of the form: Y=A+(B−A)/[1+(x/C)D] Where A, B, C, and D are fitted parameters (parameter B is fixed at zero POC), and x and y are the independent and dependent variables, respectively. The IC50 is determined as the inflection point parameter, C.
Target sequence in this assay (O75116 1-543, species assumed): as the sequence (O75116 1-543) above
A general note: Fluorescence polarisation rises when a labelled molecule tumbles more slowly, as on binding a larger partner.

Broadly, the IC50 is the concentration at which inhibition is half-maximal.

As for `COc1ccc(C(=O)N[C@@H](c2cccc(C(=O)Nc3nc4c(s3)CN(C)CC4)c2)C2CC2)cc1Cl` [Compound 2], in assay [1], the IC50 amounted to 2.8 nM. `CCCC[C@@H](NC(=O)Nc1cccc(C#N)c1)c1cccc(C(=O)Nc2nc3c(s2)CN(C)CC3)c1` [Compound 4] showed an IC50 in assay [1] of 22.4 nM.

In the case of `CN1CCc2nc(NC(=O)c3cccc(N4CCC[C@@H]4C(=O)Nc4ccc(C#N)cc4)c3)sc2C1` [Compound 5, (R)-1-[3-(5-methyl-4,5,6,7-tetrahydro-thiazolo[5,4-c]pyridin-2-ylcarbamoyl)-phenyl]-pyrrolidine-2-carboxylic acid (4-cyano-phenyl)-amide], in assay [1], inhibition was half-maximal at 19.1 nM (IC50).

As to `CCCC[C@@H](NC(=O)c1ccc(OC)c(Cl)c1)c1cccc(C(=O)Nc2nc3c(s2)CN(C)CC3)c1` [Compound 8], 38.1 nM corresponded to half-maximal inhibition in assay [1] (IC50). Same read-out and setting: under `CC[C@@H](NC(=O)Nc1cccc(C#N)c1)c1cccc(C(=O)Nc2nc3c(s2)CN(C)CC3)c1` [Compound 10] stands 5.7 nM. Consider `CC[C@@H](NC(=O)Nc1ccc(C#N)cc1)c1cccc(C(=O)Nc2nc3c(s2)CN(C)CC3)c1` [Compound 12], for which, in assay [1], the midpoint of inhibition, the IC50, lay at 23.1 nM. On the same count and under the same terms, in the case of `CC[C@@H](NC(=O)c1ccc(OC)c(Cl)c1)c1cccc(C(=O)Nc2nc3c(s2)CN(C)CC3)c1` [Compound 14] it was 3.8 nM; in that of `CN1CCc2nc(NC(=O)c3cccc([C@H]4CNC[C@@H]4C(=O)Nc4ccc(C#N)cc4)c3)sc2C1` [Compound 15], 21.2 nM; in that of `C[C@@H](Oc1cccc(C(=O)Nc2nc3c(s2)CN(C)CC3)c1)C(=O)Nc1ccc(C#N)cc1` [Compound 19, 3-[(R)-1-(4-cyano-phenylcarbamoyl)-ethoxy]-N-(5-methyl-4,5,6,7-tetrahydro-thiazolo[5,4-c]pyridin-2-yl)-benzamide], 35 nM. In assay [1], `CN1CCc2nc(NC(=O)c3cccc(N4CCC[C@@H]4C(=O)Nc4cccc(C#N)c4)c3)sc2C1` [Compound 21] had an IC50 of 95.5 nM. On to `CN1CCc2nc(NC(=O)c3cccc(OCC(=O)Nc4ccc5[nH]ncc5c4)c3)sc2C1` [Compound 23], for which, in assay [2], the IC50 is 0.8 nM.

For the molecule `Cc1nc(-c2ccncc2)sc1C(=O)N1CCC[C@@H]1c1cccc(C(=O)Nc2nc3c(s2)CN(C)CC3)c1` [Compound 24], the half-maximal inhibitory concentration (IC50) in assay [1] amounted to 12.5 nM. For `Cc1c(C(=O)N2CCC[C@@H]2c2cccc(C(=O)Nc3nc4c(s3)CN(C)CC4)c2)nnn1-c1nonc1N` [Compound 30], the IC50 in assay [1] was determined as 33.4 nM. Take `CN(C)[C@H]1CCc2nc(NC(=O)c3cccc([C@H]4CCCN4C(=O)Nc4cccc(C#N)c4)c3)sc2C1` [Compound 37]: the IC50 in assay [2] came to 0.3 nM.

With `CN1CCc2nc(NC(=O)c3cccc([C@H]4CCCN4C(=O)Nc4ccc(C#N)cc4)c3)sc2C1` [Compound 38], in assay [1], it took 15.3 nM to reach half-maximal inhibition (IC50). In assay [1], `N#Cc1cccc(NC(=O)N2CCCC2c2cccc(C(=O)Nc3ccc4c(c3)CNCC4)c2)c1` (stereo not shown) [Compound 47, 2-[3-(1,2,3,4-tetrahydro-isoquinolin-7-ylcarbamoyl)-phenyl]-pyrrolidine-1-carboxylic acid (3-cyano-phenyl)-amide trifluoroacetic acid] gave an IC50 of 17.8 nM.

In turn, `N#Cc1cccc(NC(=O)N2CCC[C@@H]2c2cccc(C(=O)Nc3ccc4c(c3)CNCC4)c2)c1` [Compound 53] had an IC50 in assay [1] of 11.5 nM. Turning to `CN1CCc2nc(NC(=O)c3cccc(C4CCCN4C(=O)Nc4cccc(C#N)c4)c3)sc2C1` (stereo not shown) [Compound 55], the IC50 in assay [1] was found to be 8.8 nM. As to `N#Cc1cccc(NC(=O)N2CCCC2c2cccc(C(=O)Nc3nc4c(s3)CN(Cc3ccccc3)CC4)c2)c1` (stereo not shown) [Compound 57], half-maximal inhibition in assay [1] (IC50) required 20.9 nM. The same measure, in the same setting: under `CN1CCc2ccc(NC(=O)c3cccc(C4CCCN4C(=O)Nc4cccc(C#N)c4)c3)cc2C1` (stereo not shown) [Compound 59] stands 22.4 nM; under `CN1CCc2nc(NC(=O)c3cccc(C4CCCN4C(=O)Nc4ccc(C#N)cc4)c3)sc2C1` (stereo not shown) [Compound 61], 74.4 nM; under `CN1CCc2nc(NC(=O)c3cccc(C4CCCN4C(=O)Nc4ccc(C(N)=O)cc4)c3)sc2C1` (stereo not shown) [Compound 77], 5.4 nM.

Molecule `C[C@@H](NC(=O)Nc1cccc(C#N)c1)c1cccc(C(=O)Nc2nc3c(s2)CN(C)CC3)c1` [Compound 81] showed an IC50 in assay [1] of 5.5 nM.

On to `N#Cc1ccn2cc(C(=O)N3CCC[C@@H]3c3cccc(C(=O)Nc4nc5c(s4)C[C@@H](N4CCOCC4)CC5)c3)nc2c1` [Compound 82], for which the 50% inhibitory concentration (IC50) in assay [2] stood at 1.7 nM.

The molecule `C[C@H](NC(=O)Nc1ccc(C#N)cc1)c1cccc(C(=O)Nc2nc3c(s2)CN(C)CC3)c1` [Compound 83] returned an IC50 in assay [1] of 37.8 nM. With `CN1CCc2nc(NC(=O)c3cccc([C@H]4CCCN4C(=O)c4ccc5[nH]c(=O)ccc5c4)c3)sc2C1` [Compound 84], it took 20.8 nM to reach half-maximal inhibition in assay [1] (IC50). As to `C[C@@H](NC(=O)Nc1ccc(C#N)cc1)c1cccc(C(=O)Nc2nc3c(s2)CN(C)CC3)c1` [Compound 85], half-maximal inhibition in assay [1] (IC50) was put at 22.4 nM. Regarding `CN1CCc2nc(NC(=O)c3cccc([C@H]4CCCN4C(=O)c4ccc(-c5cc[nH]n5)cc4)c3)sc2C1` [Compound 86], in assay [1], inhibition was half-maximal at 44.9 nM (IC50). `CN(C)[C@H]1CCc2nc(NC(=O)c3cccc([C@H]4CCCN4C(=O)c4ccc(-c5ccncc5)cc4)c3)sc2C1` [Compound 88]: the IC50 in assay [2] is 3.8 nM. `N#Cc1cccc(NC(=O)N2CCC[C@@H]2c2cccc(C(=O)Nc3nc4c(s3)CN(Cc3ccccc3)CC4)c2)c1` [Compound 105]: the IC50 in assay [1] was found to be 12.5 nM. Turning to `CN1CCc2ccc(NC(=O)c3cccc([C@H]4CCCN4C(=O)Nc4cccc(C#N)c4)c3)cc2C1` [Compound 109], in assay [1], the half-maximal inhibitory concentration (IC50) amounted to 9.5 nM. Molecule `CN1CCc2nc(NC(=O)c3cccc(C4CCCCN4C(=O)Nc4cccc(C#N)c4)c3)sc2C1` (stereo not shown) [Compound 111] registered an IC50 in assay [1] of 39.3 nM. Same read-out and setting: in the case of `CN1CCc2nc(NC(=O)c3cccc(C4CCCN(C(=O)Nc5cccc(C#N)c5)C4)c3)sc2C1` (stereo not shown) [Compound 115] it was 77.5 nM. `CN1CCc2nc(NC(=O)c3cccc(C4CCCCN4C(=O)Nc4ccc(C#N)cc4)c3)sc2C1` (stereo not shown) [Compound 117] had an IC50 in assay [1] of 18.7 nM.

The molecule `COc1ccc(C(=O)N[C@H](C)c2cccc(C(=O)Nc3ccc4c(c3)CN(C)CC4)c2)cc1OC` [Compound 141] showed an IC50 in assay [1] of 8.9 nM.

In assay [1], `COc1ccc(C(=O)N[C@H](C)c2cccc(C(=O)Nc3ccc4c(c3)CN(C)CC4)c2)cc1Cl` [Compound 143] registered a 50% inhibitory concentration (IC50) of 14 nM. `COc1ccc(C(=O)N[C@H](C)c2cccc(C(=O)Nc3ccc4c(c3)CN(C)CC4)c2)cc1C` [Compound 145] came in with an IC50 in assay [1] of 10.5 nM.

Consider `C[C@@H](NC(=O)Nc1cccc(C#N)c1)c1cccc(C(=O)Nc2ccc3c(c2)CN(C)CC3)c1` [Compound 147], for which the IC50 in assay [1] was determined as 18.9 nM. `C[C@@H](NC(=O)Nc1ccc(C#N)cc1)c1cccc(C(=O)Nc2ccc3c(c2)CN(C)CC3)c1` [Compound 149] displayed an IC50 in assay [1] of 57.5 nM. Same read-out and setting: in the case of `CN1CCc2nc(NC(=O)c3cccc([C@H]4CCCN4C(=O)c4cn5cc(C#N)ccc5n4)c3)sc2C1` [Compound 150] it was 25.5 nM; in that of `C[C@@H](NC(=O)Nc1ccc(C(N)=O)cc1)c1cccc(C(=O)Nc2ccc3c(c2)CN(C)CC3)c1` [Compound 153], 9.5 nM. In assay [1], `CN1CCc2nc(NC(=O)c3cccc([C@H](NC(=O)Nc4cccc(C#N)c4)C4CC4)c3)sc2C1` [Compound 155] yielded an IC50 of 9.7 nM. Take `CN1CCc2nc(NC(=O)c3cccc([C@H](NC(=O)Nc4ccc(C#N)cc4)C4CC4)c3)sc2C1` [Compound 157]: the IC50 in assay [1] is 45.7 nM.

(Values after patent US9079880B2, “Rho kinase inhibitors” (Boehringer Ingelheim International GmbH, priority 2010, dated 2015).)
